# Measurements published in article PMC12117998, “First Steps toward the Design of Peptides that Influence the Intracellular Palmitoylation Machinery” (Chembiochem, 2025).
# No end group written: not given here.
# How the values were obtained:
# MDA‐MB‐231 [1] = assay: Cell viability assay (resazurin); format: cell-based; details: MDA‐MB‐231, 24 h, CF‐labeled peptides, n = 3 (Figure 3B)
# Experimental: (§1) HeLa (13,000), MDA‐MB‐231 (26,000), HFF‐1 (16,000) cells, mEGFP‐HRas (18,000), and SW480 and SW620 (15,000) were seeded into a 96‐well plate. Cells were treated with suitable peptide concentrations diluted in the corresponding serum‐free culture medium. After 24 h incubation under standard growth conditions, the cells were washed once with PBS. The positive control was treated for 10 min with 70% EtOH. To test the viability, cells were treated with a resazurin solution (In Vitro Toxicology Assay Kit, resazurin based, Sigma) and incubated for a further 1–2 h. The product resorufin was measured at 595 nm (λex = 550 nm) on an infinite M200 plate reader (Tecan) and normalized to the untreated negative control cells.
# HeLa cells [2] = assay: Cell viability assay (resazurin); format: cell-based; details: 24 h; for cytotoxicity (cell viability): CF‐labeled peptides, n = 3 (Figure 3A); for concentration up to which peptide is not toxic (cell viability): unlabeled peptides in serum-free medium, untreated control = 100%, n = 3 (Figure 2A)
# Experimental: as §1
# HFF‐1 cells [3] = assay: Cell viability assay (resazurin); format: cell-based, human; details: HFF‐1, 24 h, CF‐labeled peptides, n = 3 (Figure 3C)
# Experimental: as §1
# human 6His‐ZDHHC7 = molecular target: T1, human 6His‐ZDHHC7 (Homo sapiens, UniProt Q9NXF8); assay: In vitro palmitoylation assay (LC‐MS); format: biochemical; details: 50 μM CF‐labeled peptide, 37 °C, LC‐MS (Figure 4); for palmitoylation in presence of ZDHHC7: 100 nM ZDHHC7, 100 μM palmitoyl‐CoA, pH 7.0, 2 h; for palmitoylation in absence of ZDHHC7 (auto‐palmitoylation): 100 μM palmitoyl‐CoA, no ZDHHC7, pH 7.0, 2 h
# T1 construct: 6His; purchased Proteintech
# T1 sequence (Q9NXF8 1-308): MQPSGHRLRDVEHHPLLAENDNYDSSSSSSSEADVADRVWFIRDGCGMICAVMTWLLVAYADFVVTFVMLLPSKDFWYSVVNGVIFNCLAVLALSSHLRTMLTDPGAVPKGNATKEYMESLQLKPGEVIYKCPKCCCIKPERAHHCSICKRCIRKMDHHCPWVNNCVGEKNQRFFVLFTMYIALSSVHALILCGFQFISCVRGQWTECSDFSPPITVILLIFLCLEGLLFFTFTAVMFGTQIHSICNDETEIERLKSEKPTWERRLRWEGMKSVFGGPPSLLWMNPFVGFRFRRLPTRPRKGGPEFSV
# Experimental: The 50 μM CF‐labeled peptides were incubated with 100 nM human 6His‐ZDHHC7 (Proteintech) and 100 μM palmitoyl‐CoA (Santa Cruz Biotechnology) in reaction buffer (50 mM HEPES, 150 mM NaCl, 1 mM EDTA, 1 mM (tris(2‐carboxyethyl)phosphine) (TCEP), 0.3 mM DDM, pH 7.0) for 2 h at 37 °C. Control reactions without ZDHHC7 or palm‐CoA were incubated with the appropriate volume of reaction buffer. Afterward, the reaction was centrifuged for 5 min at 13000 rpm. The precipitate was dissolved in DMSO/ACN (3:2, v/v). To enrich the peptide from the supernatant, C8 ZipTips were used. All samples were analyzed on the LC MS‐8060 triple quadrupole ESI‐MS (Shimadzu). The fluorescence intensity (λex = 493 nm, λem = 517 nm) of the samples was measured on an EC 160/2 NUCLEODUR 300‐5 C18 ec column using linear gradients from 20% to 70 % ACN in ddH2O + 0.1% FA over 7 min.
# HeLa cells [4] = assay: Cellular uptake by flow cytometry; format: cell-based; details: 30 min, serum-free medium, 37 °C, flow cytometry
# Experimental: (§2) HeLa (90,000), MDA‐MB‐231 (120,000), and HFF‐1 (125,000) cells were seeded into a 24‐well plate. Cells were treated with the desired concentration of CF‐labeled peptide diluted in the appropriate serum‐free medium for 30 min at 37 °C and 5% CO2. Afterward, cells were washed once with PBS, detached from the plate using indicator‐free trypsin/EDTA and resuspended in indicator‐free culture medium. The cell mixture was measured on the Guava easyCyte flow cytometer (Merck) using the GRN‐B (520/30) detector.
# CMA was synthesized and kindly provided by Azizi et al.^[ [33] ^] Cells were either treated with 20 μM CMA diluted in serum‐free media or 0.1% DMSO diluted in serum‐free media for 6 h at 37 °C with 5% CO2. Next, cells were washed once with serum‐free medium and 5 μM CF‐labeled peptides diluted in serum‐free medium were incubated for 30 min. Control cells were only treated with dimethylsulfoxide (DMSO) or 20 μM CMA.
# For the preincubation assay, cells were either treated with 5 μM DC‐2 diluted in serum‐free medium or only serum‐free medium for 30 min at 37 °C and 5% CO2. Afterward, cells were washed once with serum‐free medium and treated with 5 μM CF‐labeled DC‐2 for 30 min at 37 °C and 5% CO2.
# To block cell surface thiols, cells were incubated with either serum‐free medium or 1.2 mM 5,5′‐dithiobis‐(2‐nitrobenzoic acid) (Ellman's reagent, DTNB) diluted in serum‐free medium for 5 min. Next, untreated cells were treated with 1 μM of CF‐labeled DC‐2 or DC‐2dis diluted in serum‐free medium and DTNB‐pretreated cells with 1 μM of CF‐labeled DC‐2 or DC‐2dis and 1.2 mM DTNB in serum‐free medium for 30 min at 37 °C and 5% CO2 as described by Aubry et al.^[ [47] ^]
# MCF‐10 A breast spheroid = assay: Confocal time‐lapse imaging of spheroids; format: cell-based, human; details: 10‐day‐old MCF‐10 A spheroids, 10 μM CF‐labeled peptide, imaged every 45 s for 20 min, n ≥ 2 (Figure 7)
# Experimental: Spheroids from single MCF10‐A cells were generated for 10 days as described in ref. [66]. For further analyses, spheroids were isolated from EHS matrix through incubation in 2 mL ice‐cold cell recovery solution (BD Biosciences) for 30 min (4 °C). Next, spheroids were washed with fresh EGF‐free medium and individually picked under a stereo microscope for seeding onto 35 mm cell culture dishes with microscopic glass bottoms (Cover Slip, 24 × 24 mm, #1.5 HP, Menzel‐Gläser). Spheroids adhered to glass substrates for 15 min (RT) and were subsequently covered with 0.9 mL fresh EGF‐free growth medium.
# Live‐cell imaging was performed at 37 °C and 5% CO2 (cell incubator XL, Zeiss, Germany) with an inverse confocal laser scanning microscope (LSM880 with Airyscan detector) that used a 40x LD C‐Apochromat water immersion objective (NA 1.1, Zeiss). Before addition of peptides, control images were taken. Subsequently, peptide was added to a final concentration of 10 μM and spheroids immediately imaged every 45 s for 20 min. The observed plane was at the equatorial plane of a spheroid, where the diameter was largest. Images were taken with Fast Airyscan and subsequent processing using the ZEN 2.3 black software (Zeiss). Z‐stacks were taken right after the time series in 1 μm steps with the same microscopic settings.
# HFF‐1 cells [5] = assay: Cellular uptake by flow cytometry; format: cell-based, human; details: HFF‐1, 30 min, 5 μM CF‐labeled peptides, serum-free medium, 37 °C, n ≥ 3 (Figure 3F)
# Experimental: as §2
# HeLa cells [6] = assay: Live‐cell fluorescence imaging of peptide uptake; format: cell-based; details: 30 min, 5 μM CF‐labeled peptides, confocal laser scanning microscopy (Figure 3G)
# Experimental: HeLa (40,000), MDA‐MB‐231 (30,000), or HFF1 (55,000) cells were seeded into an 8‐well ibidi. Cells were treated for 30 min with 5 μM of CF‐labeled peptide diluted in the appropriate serum‐free media. The cell nuclei were stained with the Hoechst 33342 nuclear dye for the last 10 min of the total incubation time. Afterward, cells were washed three to four times using serum‐free medium and finally, medium containing FBS was added for the microscopy. Live fluorescence microscopy analyses were performed on the LSM 980 with Airyscan 2 Inverse Confocal Laser Scanning Microscope (Carl Zeiss) on a 63X Plan‐Apochromat oil objective (NA 1.4, Zeiss) at 37 °C and 5% CO2 or on the BZ‐X810 (Keyence) using a 60X Plan‐Apochromat oil objective (NA 1.4, Keyence). Images were cropped and processed using Fiji.
# Hela cells (15,000) were seeded into a 96-well plate. Cells were treated with suitable peptide concentrations diluted in the corresponding serum-free culture medium. After 1 h peptide incubation under standard growth conditions, the positive control was either directly treated with lysis solution or the supernatant was exchanged for serum-free culture medium and the plate was incubated for further 5 h under growing conditions. The CytoTox-ONE™ Reagent was added and incubated at RT for 10 minutes. Finally, the Stop Solution was added and the fluorescence was measured at 595 nm (λex = 550 nm) on an infinite M200 plate reader (Tecan) and normalized to the positive control cells.
# Red blood cells (RBCs) were washed three times in PBS by centrifug ing at 4 °C and 3,000 x g for 5 min and diluted to 5% in PBS. The desired peptide concentrations diluted in PBS were added into a 96-well plate. Next, 5% RBCs in PBS were added into the wells and incubated for 24 h at 37 °C and 5% CO2. As a positive control, RBCs were mixed with 10% Triton X-100 in PBS. […] Lastly, the absorption (λ=560 nm) was measured on the infinite M200 plate reader (Tecan). For the evaluation, the measured absorption of the Triton-X-100 treatment was set to a hemolysis rate […]
# MDA‐MB‐231 [7] = assay: Cellular uptake by flow cytometry; format: cell-based; details: MDA‐MB‐231, 30 min, 5 μM CF‐labeled peptides, serum-free medium, 37 °C, n ≥ 3 (Figure 3E)
# Experimental: as §2
# [8] = 5 μM CF‐labeled peptides, n ≥ 3 (Figure 3D, 5C)
# [9] = 10 μM CF‐labeled peptides, n = 3 (Figure 2B)
substance,measurement,setting,value
"GLRKRLRKFRNK-NH2 [sC18*, cell‐penetrating peptide (CPP) sC18*, origin CAP18, control peptide, reference compound]",cytotoxicity (cell viability),MDA‐MB‐231 [1],not toxic
same,cytotoxicity (cell viability),HeLa cells [2],not toxic
same,concentration up to which peptide is not toxic (cell viability),HeLa cells [2],> 100 µM
same,cytotoxicity (cell viability),HFF‐1 cells [3],not toxic
"GLRKRLRKFRNKEFDHHCPW-NH2 [DC‐4, CPP sC18* fused to the DHHC motif derived from ZDHHC5]",palmitoylation in presence of ZDHHC7,human 6His‐ZDHHC7,only a minor peak of palmitoylated DC‐4
same,palmitoylation in absence of ZDHHC7 (auto‐palmitoylation),human 6His‐ZDHHC7,no auto‐palmitoylation
same,cellular uptake (in words),HeLa cells [4]; [8],overall weaker uptake
same,cellular uptake (in words),HeLa cells [4]; [9],internalized to less extent
"GLRKRLRKFRNKKMDHHAPW-NH2 [DA‐1, control peptide in which the cysteine of the DHHC motif of DC‐2 was exchanged by an alanine]",infiltration of basement membrane (BM)‐covered spheroids,MCF‐10 A breast spheroid,did not further enter cells of the spheroid
same,cytotoxicity (cell viability),MDA‐MB‐231 [1],not toxic
same,cytotoxicity (cell viability),HeLa cells [2],not toxic
same,concentration up to which peptide is not toxic (cell viability),HeLa cells [2],> 100 µM
same,cytotoxicity (cell viability),HFF‐1 cells [3],not toxic
"GLRKRLRKFRNKRMDHHCPW-NH2 [DC‐11, CPP sC18* fused to the DHHC motif derived from ZDHHC21]",palmitoylation in presence of ZDHHC7,human 6His‐ZDHHC7,palmitoylated
same,palmitoylation in absence of ZDHHC7 (auto‐palmitoylation),human 6His‐ZDHHC7,auto‐palmitoylation
same,cellular uptake (in words),HFF‐1 cells [5],internalized to a higher extent compared to DC‐4
same,intracellular uptake pattern,HeLa cells [6],diffuse cytosolic pattern
same,cellular uptake (in words),HeLa cells [4]; [8],internalized to a higher extent compared to DC‐4
same,cellular uptake (in words),HeLa cells [4]; [9],highest uptake
same,cellular uptake (in words),MDA‐MB‐231 [7],internalized to a higher extent compared to DC‐4
